Measured values as given in publication PMC10135057, “Molecular Modification of Kex2 P1’ Site Enhances Expression and Druggability of Fungal Defensin” (Antibiotics, 2023).
Where “and” joins values, the source holds several entries; their conditions need not be identical. Equal values may be shown once. Read-outs that look alike come from different tables or passages of the source. Bridge positions count the residues as written; N and C are the ends. Ends that are not written are not given here.

Experiments:
[1] = system: S. aureus ATCC 25923; assay: microbe, parasite or virus in culture; type: cell-based, Staphylococcus aureus; conditions: S. aureus ATCC 25923, CLSI procedure, triplicate, read-out: MIC
Method: (§1) The minimal inhibitory concentrations (MICs) assay was performed according to the CLSI procedures with the final peptide concentrations of 256, 128, 64, 32, 16, 8, 4, 2, 1, and 0.5 μg/mL, respectively. All tests were conducted in triplicate.

[2] = system: S. aureus CVCC 546; assay: microbe, parasite or virus in culture; type: cell-based, Staphylococcus aureus; conditions: S. aureus CVCC 546, CLSI procedure, triplicate, read-out: MIC
Method: as §1

[3] = system: S. aureus E48; assay: microbe, parasite or virus in culture; type: cell-based, Staphylococcus aureus; conditions: S. aureus E48, CLSI procedure, triplicate, read-out: MIC
Method: as §1

[4] = system: S. epidermidis ATCC 12228; assay: microbe, parasite or virus in culture; type: cell-based, Staphylococcus epidermidis; conditions: S. epidermidis ATCC 12228, CLSI procedure, triplicate, read-out: MIC
Method: as §1

[5] = system: Escherichia coli ATCC 25922; assay: microbe, parasite or virus in culture; type: cell-based; conditions: Escherichia coli ATCC 25922, CLSI procedure, triplicate, read-out: MIC
Method: as §1

[6] = system: Staphylococcus aureus ATCC 43300; assay: microbe, parasite or virus in culture; type: cell-based; conditions: S. aureus ATCC 43300, CLSI procedure, triplicate, read-out: MIC
Method: as §1

[7] = system: Pseudomonas aeruginosa CICC 20625; assay: Minimal inhibitory concentration (MIC); type: cell-based; conditions: CLSI procedure, triplicate
Method: as §1

[8] = system: Salmonella enterica ATCC 13076; assay: Minimal inhibitory concentration (MIC); type: cell-based; conditions: CLSI procedure, triplicate
Method: as §1

[9] = system: G+ bacteria (S. aureus, S. hyicus, S. agalactiae, S. epidermidis); assay: MIC, summary over Gram-positive bacteria; type: cell-based; conditions: range over S. aureus
Method: as §1

[10] = system: Gram-negative bacteria (E. coli, S. enterica, P. aeruginosa); assay: MIC, summary over Gram-negative bacteria; type: cell-based
Method: as §1

[11] = system: S. aureus ATCC 43300; assay: microbe, parasite or virus in culture; type: cell-based, Staphylococcus aureus; conditions: S. aureus ATCC 43300; for MIC: Staphylococcus aureus, ATCC43300, read-out: MICa (MIC of drug alone)
Method: The effects of combination were evaluated by calculating the FICI. FICI ≤ 0.5 was defined as synergy, 0.5 < FICI ≤ 1 was defined as additivity, 1 < FICI ≤ 4 was defined as indifference, and FICI > 4 was defined as antagonism.

[12] = system: RAW264.7 cells; assay: Cytotoxicity, MTT assay; type: cell-based, mouse; conditions: at 128 μg/mL, n = 3
Description: The MTT assay was used to test the cytotoxicity of FNZ to the RAW 264.7 cells.

[13] = system: S. aureus ATCC 43300; assay: Thermal stability (MIC after heat treatment); type: physicochemical, Staphylococcus aureus; conditions: MIC vs S. aureus ATCC 43300, triplicate
Method: (§2) The tolerance of FNZ to temperature and pH was evaluated. The stability of FNZ in simulated gastric fluid, artificial intestinal fluid and mouse serum was carried out as previously described. […] All assays were conducted in triplicate.

[14] = system: S. aureus ATCC 43300; assay: pH stability (MIC after pH treatment); type: physicochemical, Staphylococcus aureus; conditions: MIC vs S. aureus ATCC 43300, triplicate
Method: as §2

[15] = system: S. aureus ATCC 43300; assay: Salts stability (MIC after incubation with Na+ or Mg2+); type: cell-based, Staphylococcus aureus; conditions: 37 °C, 1 h, MIC vs S. aureus ATCC 43300, triplicate, read-out: MIC after treatment
[16] = system: S. aureus ATCC 43300; assay: Stability in simulated gastric fluid (MIC after treatment); type: in vitro ADME, Staphylococcus aureus; conditions: 1 h, MIC vs S. aureus ATCC 43300, triplicate
Method: as §2

[17] = system: S. aureus ATCC 43300; assay: Stability in mouse serum (MIC after treatment); type: in vitro ADME, Staphylococcus aureus; conditions: mouse serum (25%), 1–4 h
Method: as §2

[18] = system: S. aureus ATCC 43300; assay: Bactericidal kinetics (time-killing curves); type: cell-based, Staphylococcus aureus; conditions: FNZ 1×, 2×, 4× MIC; ampicillin 2× MIC; S. aureus ATCC 43300
Method: The S. aureus ATCC 43300 in logarithmic growth stage was diluted to a final concentration of 10^6 CFU/mL. […] Samples were taken at 0, 0.5, 1, 2, 4, 6, 8, 10, 20, and 24 h, serially diluted, and visible colonies were counted on MHA plates.

## FGFGCNGPWNEDDLRCHNHCKSIKGYKGGYCAKGGFVCKCY (disulfide 5-31, 16-38, 20-40) [FNZ]
[1]
  MIC: 1.75 µM
[2]
  MIC: 1.75 µM
[3]
  MIC: 0.88 µM
[4]
  MIC: 1.75 µM
[5]
  MIC: >28.05 µM
[6]
  MIC: 1.75 µM
[7]
  MIC: >28.05 µM
[8]
  MIC: >28.05 µM
[9]
  MICs, G+ bacteria: 4 to 8 µg/mL
[10]
  MICs, Gram-negative bacteria: > 128 µg/mL
[11]; combination FNZ + Amp
  FIC: 0.016
[11]; combination FNZ + Cip
  FIC: 0.031
[11]; combination FNZ + Kan
  FIC: 0.063
[11]; combination FNZ + Van
  FIC: 0.125
[12]
  Cell viability (survival): 88.56%
[13]; 20 °C for 1 h
  MIC after treatment: 1.75 µM
[13]; 40 °C for 1 h
  MIC after treatment: 1.75 µM
[13]; 60 °C for 1 h
  MIC after treatment: 1.75 µM
[13]; 80 °C for 1 h
  MIC after treatment: 1.75 µM
[13]; 100 °C for 1 h
  MIC after treatment: 3.5 µM
[14]; pH 2
  MIC after treatment: 1.75 µM
[14]; pH 4
  MIC after treatment: 1.75 µM
[14]; pH 6
  MIC after treatment: 1.75 µM
[14]; pH 8
  MIC after treatment: 1.75 µM
[14]; pH 10
  MIC after treatment: 3.5 µM
[15]; 50 mM Mg2+
  MIC: 1.75 µM
[15]; 50 mM Na+
  MIC: 1.75 µM
[15]; 100 mM Mg2+
  MIC: 1.75 µM
[15]; 100 mM Na+
  MIC: 1.75 µM
[15]; 150 mM Mg2+
  MIC: 1.75 µM
[15]; 150 mM Na+
  MIC: 1.75 µM
[15]; 300 mM Mg2+
  MIC: 3.5 µM
[15]; 300 mM Na+
  MIC: 1.75 µM
[15]; 500 mM Mg2+
  MIC: >7 µM
[15]; 500 mM Na+
  MIC: 3.5 µM
[16]
  MIC after treatment: 8 μg/mL and 1.75 μM
[17]; MIC read-out
  Serum stability (in words): Stable^a
[17]; MIC vs S. aureus ATCC 43300, triplicate
  MIC after treatment: 8 μg/mL and 1.75 μM

## CC1(C)S[C@@H]2[C@H](NC(=O)[C@H](N)c3ccccc3)C(=O)N2[C@H]1C(=O)O [Ampicillin, ampicillin]
[1]; Staphylococcus aureus, ATCC25923
  MIC: 0.25 µg/mL and 0.62 µM
[2]; Staphylococcus aureus, CVCC546
  MIC: 0.25 µg/mL and 0.62 µM
[3]; Staphylococcus aureus
  MIC: 0.25 µg/mL and 0.62 µM
[4]; Staphylococcus epidermidis, ATCC12228
  MIC: 2 µg/mL and 2.48 µM
[5]; ATCC25922
  MIC: 1 µg/mL and 1.24 µM
[6]; Staphylococcus aureus, ATCC43300
  MIC: 2 µg/mL and 2.48 µM
[11]; checkerboard, 37 °C, 16 h
  MIC: 2 µg/mL
[11]; checkerboard
  Combination effect with FNZ (in words): synergistic effect
[11]; combination FNZ + Amp
  FIC: 0.063
[18]
  Regrowth (rebound of colonies) up to 24 h: rebound situation was observed

## NC[C@H]1O[C@H](O[C@H]2[C@H](O)[C@@H](O[C@H]3O[C@H](CO)[C@@H](O)[C@H](N)[C@H]3O)[C@H](N)C[C@@H]2N)[C@H](O)[C@@H](O)[C@@H]1O [Kan, kanamycin]
[11]; checkerboard, 37 °C, 16 h
  MICa (MIC of drug alone): 64 µg/mL
[11]; checkerboard
  Combination effect with FNZ (in words): synergistic effect
[11]; combination FNZ + Kan
  FIC: 0.008
[11]; combination FNZ + Kan, checkerboard, 37 °C, 16 h
  MICc (MIC of drug used in combination): 0.5 µg/mL

## O=C(O)c1cn(C2CC2)c2cc(N3CCNCC3)c(F)cc2c1=O [Cip, ciprofloxacin]
[11]; checkerboard, 37 °C, 16 h
  MIC: 0.25 µg/mL
[11]; combination FNZ + Cip, checkerboard, 37 °C, 16 h
  MICc (MIC of drug used in combination): 0.375 µg/mL
